± gives the expanded uncertainty stated by the source.
Experiment: activity coefficient (dimensionless); of the first substance listed, at infinite dilution; xn = mol fraction of the nth substance listed
Conditions: 101 kPa, Liquid, Chromatography, x1 = 0

Compound `c1ccncc1` [pyridine] + CCCCn1cc[n+](C)c1.[Cl-] has an activity coefficient (358.15 K) of 1.47 ± 0.1, an activity coefficient (368.15 K) of 1.55 ± 0.1 and an activity coefficient (378.15 K) of 1.64 ± 0.11. It also gave an activity coefficient (388.15 K) of 1.78 ± 0.12.

In the case of `CC#N` [acetonitrile] + CCCCn1cc[n+](C)c1.[Cl-], the activity coefficient (358.15 K) is reported as 1.12 ± 0.07, the activity coefficient (368.15 K) is reported as 1.16 ± 0.07 and the activity coefficient (378.15 K) is reported as 1.21 ± 0.08. For the same compound, the activity coefficient (388.15 K) was 1.28 ± 0.08.

`CCC[N+](=O)[O-]` [1-nitropropane] + CCCCn1cc[n+](C)c1.CS(=O)(=O)[O-] gave an activity coefficient (358.15 K) of 1.89 ± 0.13, an activity coefficient (368.15 K) of 1.96 ± 0.13 and an activity coefficient (378.15 K) of 2.02 ± 0.14. It also gave an activity coefficient (388.15 K) of 2.13 ± 0.14.

For `CCC(=O)CC` [pentan-3-one] + CCCCn1cc[n+](C)c1.[Cl-], the activity coefficient (358.15 K) was 7.6 ± 0.52, the activity coefficient (368.15 K) was 7.72 ± 0.53 and the activity coefficient (378.15 K) was 7.78 ± 0.53. For the same compound, the activity coefficient (388.15 K) was 7.97 ± 0.54.

`COC(C)(C)C` [2-methoxy-2-methylpropane] + CCCCn1cc[n+](C)c1.COP(=O)([O-])OC gave an activity coefficient (358.15 K) of 7.17 ± 0.49, an activity coefficient (368.15 K) of 7.35 ± 0.5 and an activity coefficient (378.15 K) of 7.48 ± 0.51. It also gave an activity coefficient (388.15 K) of 7.66 ± 0.52.

`C1COCCO1` [1,4-dioxane] + CCCCn1cc[n+](C)c1.CS(=O)(=O)[O-] showed an activity coefficient (358.15 K) of 2.33 ± 0.16, an activity coefficient (368.15 K) of 2.41 ± 0.16 and an activity coefficient (378.15 K) of 2.49 ± 0.17. It also gave an activity coefficient (388.15 K) of 2.62 ± 0.18.

In the case of `Cc1ccc(C)cc1` [1,4-dimethylbenzene] + CCCCn1cc[n+](C)c1.[Cl-], the activity coefficient (358.15 K) is reported as 13.6 ± 0.93, the activity coefficient (368.15 K) is reported as 13.7 ± 0.94 and the activity coefficient (378.15 K) is reported as 14 ± 0.96. It also gave an activity coefficient (388.15 K) of 14.3 ± 0.98.

With `CC1CCCCC1` [methylcyclohexane] + CCCCn1cc[n+](C)c1.[Cl-] the activity coefficient (358.15 K) was 84.2 ± 5.8, the activity coefficient (368.15 K) was 79 ± 5.4 and the activity coefficient (378.15 K) was 73 ± 5. The activity coefficient (388.15 K) was 69.8 ± 4.8.

For `CCC(=O)CC` [pentan-3-one] + CCCCn1cc[n+](C)c1.CS(=O)(=O)[O-], the activity coefficient (358.15 K) was 4.68 ± 0.32, the activity coefficient (368.15 K) was 4.79 ± 0.33 and the activity coefficient (378.15 K) was 4.88 ± 0.33. It also gave an activity coefficient (388.15 K) of 5.09 ± 0.35.

With `C=CCCCC` [hex-1-ene] + CCCCn1cc[n+](C)c1.COP(=O)([O-])OC the activity coefficient (358.15 K) was 13.9 ± 0.95, the activity coefficient (368.15 K) was 13.7 ± 0.94 and the activity coefficient (378.15 K) was 13.4 ± 0.91. The activity coefficient (388.15 K) was 13.2 ± 0.9.

Work on `CCc1ccccc1` [ethylbenzene] + CCCCn1cc[n+](C)c1.COP(=O)([O-])OC yielded an activity coefficient (358.15 K) of 5.73 ± 0.39, an activity coefficient (368.15 K) of 5.87 ± 0.4 and an activity coefficient (378.15 K) of 5.97 ± 0.41. For the same compound, the activity coefficient (388.15 K) was 6.26 ± 0.43.

In the case of `C1CCCCCCC1` [cyclooctane] + CCCCn1cc[n+](C)c1.COP(=O)([O-])OC, the activity coefficient (358.15 K) is reported as 18.8 ± 1.3, the activity coefficient (368.15 K) is reported as 18.2 ± 1.2 and the activity coefficient (378.15 K) is reported as 17.7 ± 1.2. For the same compound, the activity coefficient (388.15 K) was 17.3 ± 1.2.

With `C1COCCO1` [1,4-dioxane] + CCCCn1cc[n+](C)c1.COP(=O)([O-])OC the activity coefficient (358.15 K) was 2.13 ± 0.14, the activity coefficient (368.15 K) was 2.19 ± 0.15 and the activity coefficient (378.15 K) was 2.25 ± 0.15. For the same compound, the activity coefficient (388.15 K) was 2.37 ± 0.16.

For `CCCO` [propan-1-ol] + CCCCn1cc[n+](C)c1.[Cl-], the activity coefficient (398.15 K) was 0.408 ± 0.034, the activity coefficient (408.15 K) was 0.434 ± 0.035 and the activity coefficient (418.15 K) was 0.464 ± 0.036. For the same compound, the activity coefficient (428.15 K) was 0.501 ± 0.038.

In the case of `C1CCOC1` [tetrahydrofuran] + CCCCn1cc[n+](C)c1.COP(=O)([O-])OC, the activity coefficient (358.15 K) is reported as 2.79 ± 0.19, the activity coefficient (368.15 K) is reported as 2.84 ± 0.19 and the activity coefficient (378.15 K) is reported as 2.89 ± 0.2. For the same compound, the activity coefficient (388.15 K) was 3.02 ± 0.21.

`CCCCCCCC` [octane] + CCCCn1cc[n+](C)c1.CS(=O)(=O)[O-] gave an activity coefficient (358.15 K) of 171 ± 12, an activity coefficient (368.15 K) of 165 ± 11 and an activity coefficient (378.15 K) of 160 ± 11. For the same compound, the activity coefficient (388.15 K) was 155 ± 11.

`C=Cc1ccccc1` [styrene] + CCCCn1cc[n+](C)c1.CS(=O)(=O)[O-] gave an activity coefficient (358.15 K) of 3.79 ± 0.26, an activity coefficient (368.15 K) of 3.96 ± 0.27 and an activity coefficient (378.15 K) of 4.2 ± 0.29. It also gave an activity coefficient (388.15 K) of 4.4 ± 0.3.

Work on `Cc1ccccc1` [toluene] + CCCCn1cc[n+](C)c1.[Cl-] yielded an activity coefficient (358.15 K) of 7.78 ± 0.53, an activity coefficient (368.15 K) of 7.91 ± 0.54 and an activity coefficient (378.15 K) of 8.09 ± 0.55. For the same compound, the activity coefficient (388.15 K) was 8.36 ± 0.57.

In the case of `CCC(=O)OC` [methyl propanoate] + CCCCn1cc[n+](C)c1.COP(=O)([O-])OC, the activity coefficient (358.15 K) is reported as 3.56 ± 0.24, the activity coefficient (368.15 K) is reported as 3.65 ± 0.25 and the activity coefficient (378.15 K) is reported as 3.76 ± 0.26. It also gave an activity coefficient (388.15 K) of 3.93 ± 0.27.

In the case of `Cc1cccc(C)c1` [1,3-dimethylbenzene] + CCCCn1cc[n+](C)c1.[Cl-], the activity coefficient (358.15 K) is reported as 14.3 ± 0.98, the activity coefficient (368.15 K) is reported as 14.5 ± 0.99 and the activity coefficient (378.15 K) is reported as 14.7 ± 1. The activity coefficient (388.15 K) was 15 ± 1.

Work on `C#CCCCC` [1-hexyne] + CCCCn1cc[n+](C)c1.CS(=O)(=O)[O-] yielded an activity coefficient (358.15 K) of 8.02 ± 0.55, an activity coefficient (368.15 K) of 8.52 ± 0.58 and an activity coefficient (378.15 K) of 9.06 ± 0.62. For the same compound, the activity coefficient (388.15 K) was 9.64 ± 0.66.

`C#CCCC` [1-pentyne] + CCCCn1cc[n+](C)c1.CS(=O)(=O)[O-] showed an activity coefficient (358.15 K) of 5.46 ± 0.37, an activity coefficient (368.15 K) of 5.84 ± 0.4 and an activity coefficient (378.15 K) of 6.26 ± 0.43. The activity coefficient (388.15 K) was 6.67 ± 0.45.

For `CCOC(C)=O` [ethyl acetate] + CCCCn1cc[n+](C)c1.[Cl-], the activity coefficient (358.15 K) was 9.02 ± 0.62, the activity coefficient (368.15 K) was 9.06 ± 0.62 and the activity coefficient (378.15 K) was 9.1 ± 0.62. It also gave an activity coefficient (388.15 K) of 9.16 ± 0.62.

`COC(C)=O` [methyl ethanoate] + CCCCn1cc[n+](C)c1.[Cl-] gave an activity coefficient (358.15 K) of 4.82 ± 0.33, an activity coefficient (368.15 K) of 4.89 ± 0.33 and an activity coefficient (378.15 K) of 5.01 ± 0.34. It also gave an activity coefficient (388.15 K) of 5.09 ± 0.35.

`O` [water] + CCCCn1cc[n+](C)c1.COP(=O)([O-])OC gave an activity coefficient (398.15 K) of 0.073 ± 0.03, an activity coefficient (408.15 K) of 0.081 ± 0.03 and an activity coefficient (418.15 K) of 0.092 ± 0.03. It also gave an activity coefficient (428.15 K) of 0.101 ± 0.03.

Compound `C#CCCCCCC` [1-octyne] + CCCCn1cc[n+](C)c1.COP(=O)([O-])OC has an activity coefficient (358.15 K) of 6.04 ± 0.41, an activity coefficient (368.15 K) of 6.22 ± 0.42 and an activity coefficient (378.15 K) of 6.48 ± 0.44. For the same compound, the activity coefficient (388.15 K) was 6.74 ± 0.46.

`Cc1ccccc1` [toluene] + CCCCn1cc[n+](C)c1.COP(=O)([O-])OC showed an activity coefficient (358.15 K) of 3.86 ± 0.26, an activity coefficient (368.15 K) of 3.99 ± 0.27 and an activity coefficient (378.15 K) of 4.09 ± 0.28. It also gave an activity coefficient (388.15 K) of 4.29 ± 0.29.

With `c1ccccc1` [benzene] + CCCCn1cc[n+](C)c1.[Cl-] the activity coefficient (358.15 K) was 4.51 ± 0.31, the activity coefficient (368.15 K) was 4.59 ± 0.31 and the activity coefficient (378.15 K) was 4.72 ± 0.32. It also gave an activity coefficient (388.15 K) of 4.82 ± 0.33.

With `CCCCCCCCC` [nonane] + CCCCn1cc[n+](C)c1.[Cl-] the activity coefficient (358.15 K) was 476 ± 33, the activity coefficient (368.15 K) was 433 ± 30 and the activity coefficient (378.15 K) was 394 ± 27. For the same compound, the activity coefficient (388.15 K) was 376 ± 26.

Compound `C=Cc1ccccc1` [styrene] + CCCCn1cc[n+](C)c1.COP(=O)([O-])OC has an activity coefficient (358.15 K) of 2.79 ± 0.19, an activity coefficient (368.15 K) of 2.93 ± 0.2 and an activity coefficient (378.15 K) of 3.06 ± 0.21. For the same compound, the activity coefficient (388.15 K) was 3.26 ± 0.22.

Work on `CCCCCCCCCC` [decane] + CCCCn1cc[n+](C)c1.[Cl-] yielded an activity coefficient (358.15 K) of 704 ± 48, an activity coefficient (368.15 K) of 638 ± 44 and an activity coefficient (378.15 K) of 580 ± 40. The activity coefficient (388.15 K) was 560 ± 39.

`COC(C)(C)C` [2-methoxy-2-methylpropane] + CCCCn1cc[n+](C)c1.CS(=O)(=O)[O-] gave an activity coefficient (358.15 K) of 17 ± 1.2, an activity coefficient (368.15 K) of 17.4 ± 1.2 and an activity coefficient (378.15 K) of 17.9 ± 1.2. For the same compound, the activity coefficient (388.15 K) was 18.6 ± 1.3.

With `CCOCC` [diethyl ether] + CCCCn1cc[n+](C)c1.COP(=O)([O-])OC the activity coefficient (358.15 K) was 6.21 ± 0.42, the activity coefficient (368.15 K) was 6.3 ± 0.43 and the activity coefficient (378.15 K) was 6.39 ± 0.44. It also gave an activity coefficient (388.15 K) of 6.48 ± 0.44.

Work on `C#CCCCCCC` [1-octyne] + CCCCn1cc[n+](C)c1.[Cl-] yielded an activity coefficient (358.15 K) of 18.3 ± 1.2, an activity coefficient (368.15 K) of 19.2 ± 1.3 and an activity coefficient (378.15 K) of 19.7 ± 1.4. For the same compound, the activity coefficient (388.15 K) was 20.4 ± 1.4.

`CCCO` [propan-1-ol] + CCCCn1cc[n+](C)c1.CS(=O)(=O)[O-] showed an activity coefficient (398.15 K) of 0.711 ± 0.047, an activity coefficient (408.15 K) of 0.744 ± 0.049 and an activity coefficient (418.15 K) of 0.783 ± 0.051. The activity coefficient (428.15 K) was 0.823 ± 0.053.
